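Cultured in 96-well plates, cells were exposed to test compound for 48 hours across five concentrations. GI50: concentration for 50% inhibition of growth.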 Calls of active or inactive are those of the source. No stated cut-off is given here; in the data, active = GI50 up to about 1.1 µM and inactive = higher. Residues, ends and D or L forms follow the SMILES beside them.
Assays:
Experiment in all cases: NCI tumour cell line growth inhibition, 48 h
[1] = system: MDA-MB-231
[2] = system: SK-MEL-5
[3] = system: Hs-578T
[4] = system: MCF7
[5] = system: IGROV-1
[6] = system: CCRF-CEM
[7] = system: OVCAR-8
[8] = system: SK-OV-3
[9] = system: NCI-H23
[10] = system: EKVX
[11] = system: SK-MEL-2
[12] = system: SNB-19
[13] = system: HT-29
[14] = system: M14
[15] = system: MDA-MB-435
[16] = system: BT-549
[17] = system: Malme-3M
[18] = system: T47D
[19] = system: SNB-75

Measured: GI50

CCC(C)C(NC(=O)C(CC(C)C)NC(=O)CNC(=O)C(NC(=O)C1CCCN1C(=O)C(CC(C)C)NC(=O)C(N)Cc1ccccc1)C(C)CC)C(=O)NC(CC(C)C)C(N)=O (configuration not stated) (H-FLPIGLIL-NH2; configuration not given here)
inactive: [1] > 75 µM | [2] > 75 µM | [3] > 75 µM | [4] > 75 µM | [5] > 75 µM | [6] > 75 µM | [7] > 75 µM | [8] > 75 µM | [9] > 75 µM | [10] > 75 µM | [11] > 75 µM | [12] > 75 µM | [13] > 75 µM | [14] > 75 µM | [15] > 75 µM | [16] > 75 µM | [17] > 75 µM | [18] > 75 µM

Cc1nnc2n1N=C(c1cc(F)c(Cl)cc1Cl)/C(=C/c1ccc(Cl)cc1)S2
inactive: [1] 15.8 µM | [2] 19.2 µM | [3] 43.1 µM | [4] 14.4 µM | [5] 19.6 µM | [6] 19.1 µM | [7] 16.1 µM | [8] 43.4 µM | [9] 14.5 µM | [10] 9.42 µM | [11] 8.15 µM | [12] 23.7 µM | [13] 11.7 µM | [14] 17.9 µM | [15] 13.6 µM | [16] 18.7 µM | [17] 20.6 µM | [18] 34 µM

O=C(c1ccccc1)c1c2ccccn2c2cccc[n+]12
inactive: [1] > 100 µM | [19] > 100 µM | [2] 47 µM | [3] > 100 µM | [4] > 100 µM | [5] > 100 µM | [6] > 100 µM | [7] 88.5 µM | [8] > 100 µM | [10] > 100 µM | [11] > 100 µM | [13] > 100 µM | [14] > 100 µM | [15] > 100 µM | [16] > 100 µM | [17] > 100 µM | [18] > 100 µM

CC1(C)OC[C@@H](O)[C@H](C#N)CO1
inactive: [1] > 100 µM | [19] > 100 µM | [2] > 100 µM | [3] > 100 µM | [4] > 100 µM | [6] > 100 µM | [7] > 100 µM | [8] > 100 µM | [9] > 100 µM | [10] > 100 µM | [11] > 100 µM | [12] > 100 µM | [13] > 100 µM | [14] > 100 µM | [15] > 100 µM | [16] > 100 µM | [17] > 100 µM | [18] > 100 µM

Cc1sc2c(c1C)C(=O)c1cccn1-2
inactive: [1] 96.4 µM | [19] 35.2 µM | [2] > 100 µM | [3] 37.7 µM | [4] 68.5 µM | [5] 64.7 µM | [6] 56.1 µM | [7] > 100 µM | [8] > 100 µM | [10] 56.4 µM | [11] > 100 µM | [12] > 100 µM | [13] 53.8 µM | [14] > 100 µM | [15] 56.6 µM | [16] 47.2 µM | [17] > 100 µM | [18] 39.8 µM

CC(=O)NNC(=S)N/C=C1/C(=O)Oc2ccccc2C1=O
inactive: [1] > 100 µM | [19] > 100 µM | [2] > 100 µM | [3] > 100 µM | [4] > 100 µM | [5] > 100 µM | [6] > 100 µM | [7] > 100 µM | [9] > 100 µM | [11] > 100 µM | [12] > 100 µM | [13] > 100 µM | [14] > 100 µM | [15] > 100 µM | [16] > 100 µM | [17] > 100 µM | [18] 5.2 µM

O=C(C=P(c1ccccc1)(c1ccccc1)c1ccccc1)c1cccc(-c2cccc([N+](=O)[O-])c2)c1
inactive: [1] 2 µM | [19] 1.51 µM | [2] 2.37 µM | [3] 3.44 µM | [4] 3.47 µM | [5] 2.94 µM | [6] 2.55 µM | [7] 3.57 µM | [8] 2.86 µM | [9] 3.44 µM | [10] 4.3 µM | [12] 4.21 µM | [13] 1.8 µM | [14] 3.13 µM | [15] 2.68 µM | [16] 4.74 µM | [17] 2.86 µM | [18] 4.9 µM

Cc1ccc(S(=O)(=O)N/N=C/C2(c3ccccc3)c3ccccc3-c3ccccc32)cc1
inactive: [1] 6.64 µM | [2] 11.6 µM | [3] 14.3 µM | [4] 6.98 µM | [5] 10.5 µM | [6] 4.16 µM | [7] 8.97 µM | [8] 15.4 µM | [9] 15.5 µM | [10] 8.95 µM | [11] 12.2 µM | [12] 18.7 µM | [13] 12.5 µM | [14] 10.9 µM | [15] 11 µM | [16] 14.2 µM | [17] 5.42 µM | [18] 2.09 µM

Source: ChEMBL document CHEMBL1201862, “PubChem BioAssay data set” (2004)
